Test systems include SNB-75; HOP-92; LOX IMVI; SF-539; HCT-15; SK-MEL-28; KM12; SNB-78; SK-OV-3; SF-295; UO-31; OVCAR-5; IGROV-1; M19-MEL; SN12C; RXF 393; HOP-62.
Common to all, as to assay: inhibition of tumour cell growth, NCI panel, 48 h

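Dose response: 5 concentrations. Exposure: 48 h. Format: 96-well plates. Endpoint: linear interpolation; highest concentration if not reached. GI50: concentration for 50% inhibition of growth.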 Activity calls are given as the source filed them. No stated cut-off is given here; in the data, active = GI50 up to about 1.1 µM and inactive = higher.

In the case of `CCOC(=O)/C(=C/c1ccco1)P(=O)(OCC)OCC`, the GI50 in the experiment with SNB-75 was > 100 µM (inactive); in the experiment with HOP-92, > 100 µM (inactive); in the experiment with LOX IMVI it was > 100 µM (inactive); in the experiment on SF-539, > 100 µM (inactive); with HCT-15 it was over 100 µM; with SK-MEL-28 it was > 100 µM (inactive). Moreover, the GI50 in the experiment with KM12, in the experiment with SNB-78, with SK-OV-3, in the experiment on SF-295, with UO-31 and in the experiment on OVCAR-5 was > 100 µM (inactive) each time. Besides, the GI50 with IGROV-1, in the experiment with M19-MEL and with SN12C was > 100 µM (inactive) in each case.

As to `CCOc1ccccc1NC(=O)CCc1nnc(S)[nH]1`, the GI50 with RXF 393 is > 100 µM (inactive); in the experiment on HOP-92 it was > 100 µM (inactive); in the experiment on LOX IMVI it was > 100 µM (inactive); with SF-539 it was > 100 µM (inactive); in the experiment on HCT-15, over 100 µM; with SK-MEL-28 it was > 100 µM (inactive). Further, the GI50 with KM12, in the experiment with SNB-78, in the experiment on SK-OV-3, in the experiment on SF-295, in the experiment with UO-31 and in the experiment on OVCAR-5 was > 100 µM (inactive) each time. In addition, the GI50 with IGROV-1, in the experiment on HOP-62, with M19-MEL and in the experiment on SN12C was > 100 µM (inactive) throughout.

Consider `Cc1cc(O)c(C(=O)CC2(O)C(=O)Nc3c(Cl)cc(Cl)cc32)c(=O)o1` (stereo unspecified), for which the GI50 is 26.6 µM (inactive) in the experiment on SNB-75; > 100 µM (inactive) with HOP-92; 61.1 µM (inactive) in the experiment on SF-539; over 100 µM in the experiment with HCT-15; > 100 µM (inactive) in the experiment with SK-MEL-28; > 100 µM (inactive) in the experiment on KM12. In addition, the GI50 in the experiment with SNB-78, in the experiment with SK-OV-3, in the experiment with SF-295, in the experiment with UO-31, in the experiment on OVCAR-5 and in the experiment on IGROV-1 was > 100 µM (inactive) throughout. Moreover, the GI50 in the experiment on HOP-62 is > 100 µM (inactive); in the experiment with M19-MEL it was 46.8 µM (inactive); in the experiment with SN12C, > 100 µM (inactive).

Take `Cn1c(=O)oc2cc(C3CCC(=O)N3Cc3ccc(Cl)cc3)ccc21` (stereo unspecified): the GI50 was 47.9 µM (inactive) in the experiment with SNB-75; 29.6 µM (inactive) in the experiment with RXF 393; > 100 µM (inactive) in the experiment on LOX IMVI; > 100 µM (inactive) in the experiment on SF-539; over 100 µM with HCT-15; > 100 µM (inactive) with SK-MEL-28. The GI50 with KM12 was > 100 µM (inactive); in the experiment on SNB-78 it was > 100 µM (inactive); in the experiment with SK-OV-3, 93.3 µM (inactive); with SF-295, > 100 µM (inactive); in the experiment with UO-31, > 100 µM (inactive); in the experiment with OVCAR-5, > 100 µM (inactive). The GI50 with IGROV-1, in the experiment on HOP-62, with M19-MEL and in the experiment with SN12C was > 100 µM (inactive) each time.

`O=C(c1ccco1)c1ccccc1C(=O)c1ccco1`: the GI50 with SNB-75 was > 100 µM (inactive); in the experiment with RXF 393 it was > 100 µM (inactive); in the experiment on HOP-92, > 100 µM (inactive); in the experiment with LOX IMVI, > 100 µM (inactive); with SF-539 it was > 100 µM (inactive); with HCT-15, over 100 µM. Further, the GI50 in the experiment on SK-MEL-28, in the experiment with KM12, in the experiment on SNB-78, in the experiment on SF-295, with UO-31 and in the experiment on OVCAR-5 was > 100 µM (inactive) in each case. In addition, the GI50 in the experiment on IGROV-1, with HOP-62, in the experiment with M19-MEL and with SN12C was > 100 µM (inactive) in each case.

In the case of `O=C1Sc2ccccc2C(=O)N2CCSC12` (stereo unspecified), the GI50 was > 100 µM (inactive) in the experiment on RXF 393; > 100 µM (inactive) in the experiment on HOP-92; > 100 µM (inactive) with LOX IMVI; over 100 µM with HCT-15; > 100 µM (inactive) with SK-MEL-28; > 100 µM (inactive) in the experiment on KM12. For the same compound, the GI50 with SNB-78 was > 100 µM (inactive); in the experiment with SK-OV-3, > 100 µM (inactive); with SF-295, > 100 µM (inactive); in the experiment on UO-31, > 100 µM (inactive); with OVCAR-5, > 100 µM (inactive); in the experiment with IGROV-1, > 10 µM (inactive). Moreover, the GI50 in the experiment with HOP-62, with M19-MEL and in the experiment with SN12C was > 100 µM (inactive) in each case.

In the case of `CC(=O)c1ccc(OCC(O)CO)cc1` (stereo unspecified), the GI50 with SNB-75 is > 100 µM (inactive); in the experiment on HOP-92, > 100 µM (inactive); in the experiment with SF-539, > 100 µM (inactive); with HCT-15 it was over 100 µM; in the experiment on SK-MEL-28, > 100 µM (inactive); with KM12, > 100 µM (inactive). In addition, the GI50 in the experiment with SNB-78, with SK-OV-3, in the experiment with SF-295, with UO-31, with OVCAR-5 and in the experiment on IGROV-1 was > 100 µM (inactive) each time. Also, the GI50 with HOP-62, in the experiment on M19-MEL and with SN12C was > 100 µM (inactive) in each case.

For the compound `Cc1nc2c(n1-c1ccccc1)C(=O)c1ccccc1C2=O`, the GI50 in the experiment with SNB-75 is > 100 µM (inactive); with RXF 393 it was 75.2 µM (inactive); in the experiment on SF-539 it was 41.7 µM (inactive); in the experiment on HCT-15, 20.6 µM; with SK-MEL-28 it was 96.2 µM (inactive); in the experiment on KM12, 50.2 µM (inactive). Moreover, the GI50 in the experiment on SNB-78 is 27.5 µM (inactive); in the experiment on SK-OV-3, > 100 µM (inactive); with SF-295 it was 38.4 µM (inactive); in the experiment on UO-31, 73.3 µM (inactive); in the experiment on OVCAR-5, > 100 µM (inactive); in the experiment on HOP-62 it was > 100 µM (inactive). The GI50 is 17.9 µM (inactive) in the experiment on M19-MEL and 38.2 µM (inactive) in the experiment with SN12C.

Consider `Nc1ccc(N)c2c1C(=O)c1ccccc1C2=O`, for which the GI50 is > 100 µM (inactive) with SNB-75; 36.2 µM (inactive) in the experiment on HOP-92; 9.02 µM (inactive) with LOX IMVI; 34.4 µM (inactive) with SF-539; 4.41 µM in the experiment on HCT-15; > 100 µM (inactive) with SK-MEL-28. Further, the GI50 was 4.54 µM (inactive) in the experiment on KM12; > 100 µM (inactive) in the experiment on SNB-78; 2.49 µM (inactive) in the experiment with SK-OV-3; 12.4 µM (inactive) in the experiment on UO-31; > 100 µM (inactive) in the experiment on OVCAR-5; 6.44 µM (inactive) with IGROV-1. Also, the GI50 with HOP-62 is 5.01 µM (inactive); with M19-MEL it was 95.5 µM (inactive); in the experiment with SN12C, 13.2 µM (inactive).

For the compound `O=C1c2ccccc2C2(O)NC(=S)N(c3ccccc3)C12O` (stereo unspecified), the GI50 is > 100 µM (inactive) with SNB-75; > 100 µM (inactive) in the experiment on HOP-92; > 100 µM (inactive) in the experiment with LOX IMVI; > 100 µM (inactive) in the experiment with SF-539; over 100 µM in the experiment with HCT-15; > 100 µM (inactive) in the experiment on SK-MEL-28. In addition, the GI50 with KM12, in the experiment with SNB-78, in the experiment on SK-OV-3, with SF-295, in the experiment with UO-31 and with OVCAR-5 was > 100 µM (inactive) each time. Moreover, the GI50 in the experiment on IGROV-1 and in the experiment with M19-MEL was > 100 µM (inactive) in each case.

The values are drawn from ChEMBL document CHEMBL1201862, “PubChem BioAssay data set” (2004).
